The text below walks through data of publication PMC6143625, “A high throughput screen for next-generation leads targeting malaria parasite transmission” (Nature Communications, 2018).

Structures are written as SMILES. Some results are limits rather than exact numbers.

Experiment [1] concerns P. falciparum stage V male gametocytes (male gamete formation). Kind of experiment: P. falciparum dual gamete formation assay (Pf DGFA), male readout (exflagellation), 48 h carry-over format. The experiment is classed as cell-based, Plasmodium falciparum NF54. To be noted: primary screen, 2 uM, 48 h incubation, single replicate. As for the experimental part:
(§1) P. falciparum NF54 strain (originally isolated from an imported malaria case in the Netherlands in the 1980s; BEI Resources, cat. no. MRA-1000) asexual and sexual stages culture was performed as previously described. Gametocyte cultures were initiated at 1% asexual ring stage parasitaemia and 4% haematocrit in 40 ml final volume. To induce gametocyte production, complete culture medium (CM) (RPMI 1640 supplemented with 25 mM HEPES, 50 µg ml^−1 hypoxanthine, 2 g l^−1 NaHCO3 and 10% pooled human male type A+ serum) was replaced daily for 14 days without fresh erythrocyte addition. Human serum was obtained from Interstate Blood Bank, A^+ serotype; no aspirin 2 h before drawing and no antimalarials 2 weeks before drawing. On day 14 after culture induction, gametocyte production was assessed by thin smear and Giemsa staining, and exflagellation accurately counted in a haemocytometer. Gametocyte cultures with >0.2% exflagellation (compared to total erythrocyte cell number) were deemed acceptable for use in the Pf DGFA. Note, all human biological samples were sourced ethically and their research use was in accord with the terms of the informed consents under an IRB/EC approved protocol.
(§2) In screening mode, the assay was performed as described in Delves et al.[35] with a mean Z′ factor of 0.56 ± 0.14 (SD) (male) and 0.71 ± 0.17 (SD) (female). Pooled mature gametocyte cultures with the capacity to yield >0.2% exflagellation (of total cells) were diluted in CM to 14 million cells per ml and so that 700,000 cells were dispensed in 50 µl into each well of the warmed 384-well screening plates. Parasites were incubated in the plates with compounds for 48 h in a humidified chamber under 92%N2/5% CO2/3% O2 gas mix before gamete formation was triggered by addition of 10 µl per well ookinete medium (RPMI 1640 supplemented with 25 mM HEPES, 50 µg ml^−1 hypoxanthine, 2 g l^−1 NaHCO3, 100 µM xanthurenic acid) containing 0.5 µg ml^−1 anti-Pfs25 clone 4B7 (BEI Resources, cat. no. MRA-315) conjugated to the fluorophore Cy3 (GE Healthcare), and also by cooling the plate at 4 °C for 4 min and then a further 5 min at 28 °C. Exflagellation was recorded immediately by brightfield microscopy using a Nikon Ti-E widefield microscope at ×4 objective, ×1.5 zoom, recording a 10-frame video time-lapse over 2 s for each well. Afterwards, plates were incubated in the dark at 28 °C for a further 24 h to allow female gametes to maximally express Pfs25 on their surface. Female gamete formation was recorded by single-image fluorescence microscopy using the same microscope and magnification as above. Exflagellation and female gamete formation were quantified by specific algorithms designed with the open-source ICY Image Analysis software.
(§3) Assay performance statistics, such as signal to background ratio, Z′ and robust 3×SD activity cut-off were calculated using templates in ActivityBase XE (IDBS, Guilford, Surrey, UK). Hit population analysis and visualisation were conducted using Spotfire DecisionSite (Spotfire, Inc., Somerville, Massachusetts). The pIC50 (−log IC50) values were obtained using the ActivityBase XE nonlinear regression function in the full curve analysis bundle. In screening mode, the Pf DGFA achieved a mean Z′ factor of 0.56 ± 0.14 (SD) (male) and 0.71 ± 0.17 (SD) (female).

The subject of experiment [2] is P. falciparum stage V female gametocytes (female gamete formation). Briefly: P. falciparum dual gamete formation assay (Pf DGFA), female readout (Pfs25 expression), 48 h carry-over format. Format: cell-based, Plasmodium falciparum NF54. As to conditions: primary screen, 2 uM, 48 h incubation, single replicate. As for the experimental part:
as §1
as §2, with “Parasites were incubated in the plates with compounds for 48 h in a humidified chamber under” left out
as §3

For the compound `COC(=O)C1CCCN1C(=O)c1ccc(-n2nc(C)cc2C)cc1` (stereo not drawn) [DDD01075977], in experiment [1], the “%Inhibition Male @2uM” value was <30%. In experiment [2], the “%Inhibition Female @2uM” value is recorded as 33.22%.

Turning to `Fc1ccc(-c2nnc(CNC3CCc4ncnn4C3)o2)cc1` (stereo not drawn) [DDD01076055], the “%Inhibition Male @2uM” value in experiment [1] is <30%. Moreover, in experiment [2], the “%Inhibition Female @2uM” value is 36.38%.

Regarding `Cc1noc(CS(=O)(=O)C(C)C(=O)N(C)c2ccccc2)n1` (stereo not drawn) [DDD01076606], the “%Inhibition Male @2uM” value in experiment [1] is 31.49%. For the same compound, the “%Inhibition Female @2uM” value in experiment [2] is on record as <30%.

As for `CN(C)C(=O)c1ccc(NCCNc2ccc3ccccc3n2)nc1` [DDD01076923], the “%Inhibition Male @2uM” value in experiment [1] came out at 31.80%. For the same compound, the “%Inhibition Female @2uM” value in experiment [2] is reported as <30%.

Consider `CN(CC(N)=O)C(=O)C1Cc2cc(Cl)ccc2O1` (stereo not drawn) [DDD01077287], for which the “%Inhibition Male @2uM” value in experiment [1] is reported as <30%. Further, the “%Inhibition Female @2uM” value in experiment [2] is 46.87%.

For `O=S(=O)(NC1CCCCC12OCCO2)c1cc(F)cc(F)c1` (stereo not drawn) [DDD01077321], the “%Inhibition Male @2uM” value in experiment [1] is given as <30%. The “%Inhibition Female @2uM” value in experiment [2] is 41.54%.

As to `CC(CCc1ccccc1)N1CCC(C(=O)Nc2cnccn2)CC1` (stereo not drawn) [DDD01077885], in experiment [1], the “%Inhibition Male @2uM” value turned out to be 52.25%. Besides, the “%Inhibition Female @2uM” value in experiment [2] is reported as <30%.

Consider `CC(C)c1nsc(N2CCc3sccc3C2)n1` [DDD01078291], for which the “%Inhibition Male @2uM” value in experiment [1] was found to be 38.07%. The “%Inhibition Female @2uM” value in experiment [2] was <30%.

For `CSc1ccc(OCCN2CCNC(=O)CC2)cc1` [DDD01078342], the “%Inhibition Male @2uM” value in experiment [1] is reported as <30%. Moreover, in experiment [2], the “%Inhibition Female @2uM” value is 31.10%.

For the compound `CC(CNC(=O)c1cnc[nH]1)Oc1ccc(Cl)cc1` (stereo not drawn) [DDD01078520], the “%Inhibition Male @2uM” value in experiment [1] is <30%. For the same compound, the “%Inhibition Female @2uM” value in experiment [2] is on record as 32.98%.

Regarding `Cc1cc(C)c(C(=O)N2CCc3c(ncn3CCc3ccccc3)C2)[nH]1` [DDD01078816], the “%Inhibition Male @2uM” value in experiment [1] is listed as <30%. In addition, the “%Inhibition Female @2uM” value in experiment [2] is reported as 31.51%.

Regarding `CCS(=O)(=O)c1ccc(N2CCC(NC(C)=O)CC2)cc1` [DDD01080141], the “%Inhibition Male @2uM” value in experiment [1] is recorded as <30%. In experiment [2], the “%Inhibition Female @2uM” value is reported as 30.47%.

Regarding `CCN(CC)CC(=O)NCCc1csc(N2CCCC2)n1` [DDD01080188], in experiment [1], the “%Inhibition Male @2uM” value was <30%. In addition, in experiment [2], the “%Inhibition Female @2uM” value is 40.13%.

Take `Cc1ccc(C2COCCN2C(=O)c2ccc(CN(C)C)cc2)o1` (stereo not drawn) [DDD01080189]: the “%Inhibition Male @2uM” value in experiment [1] is recorded as <30%. Further, the “%Inhibition Female @2uM” value in experiment [2] is 41.68%.

Take `NC(=O)c1ccc(N2CCCCC2)c(NC(=O)c2cc(Br)ccc2F)c1` [DDD01080647]: the “%Inhibition Male @2uM” value in experiment [1] is <30%. In experiment [2], the “%Inhibition Female @2uM” value was determined as 45.72%.

Take `CCc1cnc(CN(C(C)=O)C2CCN(CCS(C)(=O)=O)C2)o1` (stereo not drawn) [DDD01081064]: the “%Inhibition Male @2uM” value in experiment [1] is given as 46.67%. Also, the “%Inhibition Female @2uM” value in experiment [2] was <30%.

For the compound `CCOC1CCC2(CCN(C(=O)c3csnn3)CC2)c2ccccc21` (stereo not drawn) [DDD01081288], the “%Inhibition Male @2uM” value in experiment [1] is on record as 95.81%. Also, the “%Inhibition Female @2uM” value in experiment [2] is given as <30%.

With `CS(=O)(=O)N1Cc2ccnn2CC(C(=O)NCc2cccnc2)C1` (stereo not drawn) [DDD01081357], the “%Inhibition Male @2uM” value in experiment [1] stood at 43.36%. The “%Inhibition Female @2uM” value in experiment [2] is on record as <30%.

Take `COc1ccc2c(c1)C1(CCNCC1)CC2NC1CC1` (stereo not drawn) [DDD01081368]: the “%Inhibition Male @2uM” value in experiment [1] is listed as 45.77%. In addition, the “%Inhibition Female @2uM” value in experiment [2] was <30%.

Consider `O=C1CC[C@@H]2[C@@H](CCN2S(=O)(=O)C2CC2)N1CC1CC1` [DDD01081437], for which the “%Inhibition Male @2uM” value in experiment [1] is reported as 31.40%. Also, in experiment [2], the “%Inhibition Female @2uM” value was <30%.

Turning to `c1c(CN2CCOCC2)nc2n1CCN(CC1CC1)C2` [DDD01081604], the “%Inhibition Male @2uM” value in experiment [1] turned out to be 36.99%. Also, the “%Inhibition Female @2uM” value in experiment [2] was <30%.

Regarding `CN(C)[C@@H]1CCN(S(C)(=O)=O)[C@H]1Cc1ccccc1` [DDD01081694], the “%Inhibition Male @2uM” value in experiment [1] amounted to 32.12%. Also, the “%Inhibition Female @2uM” value in experiment [2] is recorded as <30%.

In the case of `CCc1cnc(N2CC[C@H]3[C@@H]2CCC(=O)N3c2ccccc2)nc1` [DDD01081766], the “%Inhibition Male @2uM” value in experiment [1] was found to be 33.06%. Moreover, in experiment [2], the “%Inhibition Female @2uM” value is recorded as <30%.

As to `CC(C)n1nc(CN2CCCC2=O)c2c1CN(C(=O)c1ccc[nH]1)C2` [DDD01081769], the “%Inhibition Male @2uM” value in experiment [1] is on record as <30%. In addition, in experiment [2], the “%Inhibition Female @2uM” value was 30.49%.

Consider `O=C(c1ccoc1)N1CCOC2(COCCN(CC3CC3)C2)C1` (stereo not drawn) [DDD01082156], for which the “%Inhibition Male @2uM” value in experiment [1] was <30%. Moreover, in experiment [2], the “%Inhibition Female @2uM” value is 30.05%.

For `CC(C)N(C)Cc1cncc2c1CCN(CC(=O)N(C)C)C2` [DDD01082190], the “%Inhibition Male @2uM” value in experiment [1] is given as <30%. Also, the “%Inhibition Female @2uM” value in experiment [2] is reported as 42.20%.

For the compound `CC1c2ncc(Cn3cccn3)n2CCN1c1ncccn1` (stereo not drawn) [DDD01082239], in experiment [1], the “%Inhibition Male @2uM” value is <30%. Besides, the “%Inhibition Female @2uM” value in experiment [2] was 34.70%.

For the compound `CCCN1CCC(c2nc3ccc(-c4cccc(OC)c4)cn3n2)CC1` [DDD01082327], in experiment [1], the “%Inhibition Male @2uM” value is recorded as <30%. Also, the “%Inhibition Female @2uM” value in experiment [2] is given as 35.67%.

As to `CCOCC(=O)N1CCc2nc(C)nc(NC(C)C)c2CC1` [DDD01082409], the “%Inhibition Male @2uM” value in experiment [1] came out at 45.90%. The “%Inhibition Female @2uM” value in experiment [2] is given as <30%.

As to `O=C(NC1CC1)[C@H]1CC[C@@H]2[C@@H](CCN2CCOCc2ccccc2)O1` [DDD01082763], the “%Inhibition Male @2uM” value in experiment [1] is 87.75%. In addition, in experiment [2], the “%Inhibition Female @2uM” value was <30%.

Regarding `Cn1cncc1C(=O)N1C[C@@H]2CCN(c3cnccn3)C[C@@H]2C1` [DDD01082777], in experiment [1], the “%Inhibition Male @2uM” value is recorded as <30%. Besides, the “%Inhibition Female @2uM” value in experiment [2] worked out at 40.85%.

With `O=S(=O)(c1ccccc1)N1CCC2(CCCN2Cc2ccccc2Cl)C1` (stereo not drawn) [DDD01083172], the “%Inhibition Male @2uM” value in experiment [1] came out at 37.32%. Besides, the “%Inhibition Female @2uM” value in experiment [2] is given as <30%.

Regarding `CS(=O)(=O)NCc1nnc2n1CCN(Cc1cccnc1)C2` [DDD01083181], in experiment [1], the “%Inhibition Male @2uM” value was 31.87%. Also, the “%Inhibition Female @2uM” value in experiment [2] is <30%.

Regarding `COc1ccc(CN2CC[C@@H](O)[C@@H]2Cc2cnn(C)c2)cc1` [DDD01083182], the “%Inhibition Male @2uM” value in experiment [1] is 38.13%. The “%Inhibition Female @2uM” value in experiment [2] is <30%.

For `CC1=N[C@@]2(CC[C@@H]3CN(S(=O)(=O)CC(C)C)C[C@@H]32)C(=O)N1CC1CC1` [DDD01083262], the “%Inhibition Male @2uM” value in experiment [1] is reported as <30%. Moreover, the “%Inhibition Female @2uM” value in experiment [2] is 94.03%.

As for `CN(C)C(=O)N1CCCC2(CCN(c3ccsc3)C2=O)C1` (stereo not drawn) [DDD01083808], in experiment [1], the “%Inhibition Male @2uM” value was <30%. In addition, the “%Inhibition Female @2uM” value in experiment [2] turned out to be 43.49%.

For `CN(C)[C@@H]1CCN(C(=O)Cc2cccs2)[C@H]1Cc1ccncc1` [DDD01083822], in experiment [1], the “%Inhibition Male @2uM” value is 35.35%. For the same compound, in experiment [2], the “%Inhibition Female @2uM” value is <30%.

Consider `O=C(c1ccnnc1)N1C[C@H](OCc2ccccn2)[C@H]2COC[C@H]21` [DDD01084503], for which the “%Inhibition Male @2uM” value in experiment [1] is recorded as <30%. Also, in experiment [2], the “%Inhibition Female @2uM” value is given as 32.17%.

For the compound `CN(C)CCN1CCN(C)c2nc(-c3ccccc3)ncc2C1=O` [DDD01235874], the “%Inhibition Male @2uM” value in experiment [1] is given as 34.25%. Also, the “%Inhibition Female @2uM” value in experiment [2] is listed as <30%.
